In PMC4264749, “Phlebotomy Treatment for Elimination of Perfluoroalkyl Acids in a Highly Exposed Family: A Retrospective Case-Series” (PLoS ONE, 2014):
Where two headings read alike, the source gives them in different places.

Assays:
[1] = Serum PFAA concentrations in family members during intermittent phlebotomy (HPLC-MS/MS); assay type: in vivo, human; settings: for Serum concentration before treatment: before phlebotomy
Source text: After receiving informed consent, intermittent phlebotomy was undertaken at an overall rate (Table 2) that was equal to or less than the maximum rate of what is done for routine blood donations at the Canadian Blood Services: ∼500 ccs of whole blood every 56 days. Frequency and timing of blood removal was not consistent between family members because of their personal availability, success at each time of venesection, and compliance of each participant. […] Mineral supplementation was discussed and was taken by each participant.
All serum samples were submitted to ALS Laboratories (Edmonton, AB) for quantitative analysis of PFAAs (see Supporting Information, S1 Table). Samples were extracted by solid phase extraction and concentrations of PFHxS, PFOS, and PFOA were determined using high performance liquid chromatography/tandem mass spectrometry. Formic acid (0.1 M) along with a mixture of isotopically labeled PFAAs (Wellington Laboratories, Guelph, Ontario) were added to 1.0 mL of serum. The mixture was vortexed, sonicated, and subjected to solid phase extraction. The extract was concentrated to 100 uL and an instrument performance internal standard was added along with 200 uL of 90% 20 mM aqueous acetic acid/10% methanol. Procedural blanks were run with each set of samples, and method limits of quantification (LOQ) were 0.5 ng/mL for each analyte. For the few PFAA levels that fell below this LOQ (shown as hollow circles in Figs. 1–3), LOQ/√2 (i.e. 0.35 ng/mL) was substituted for purposes of data analysis. PFHxS, PFOS, and PFOA levels in all participating family members were >LOQ throughout the intervention except for 3 PFOS measurements out of 16 total measurements in the 3rd child and one PFOA measurement out of 9 total measurements in the […]. Written informed consent was given by participants (or parents in the case of children) for their clinical records to be used in this study.

[2] = set-up: method as in earlier work; settings: 2009–2011; cited from earlier work
[3] = set-up: method as in PMID 23980546; settings: urinary excretion, China, cited from earlier work
[4] = set-up: method as in PMID 17805419; settings: cited from earlier work
[5] = Apparent elimination half-life (HLapp) and phlebotomy efficiency coefficient in treated family members; assay type: in vivo, human; settings: family members with regular phlebotomy, except parent
Source text: To evaluate the effect of phlebotomy, versus the expected rate of intrinsic elimination, we graphically and statistically compared the observed decreasing trends in each family member (fitted to a simple exponential decay model) with reference population elimination kinetics. Specifically, for the reference population of occupationally exposed retirees, we considered: i) the 95% confidence interval of the geometric mean elimination rate for each PFAA, and ii) the fastest individual rate of elimination rate among the reference population. For comparative purposes, the concentration of each PFAA in serum on the first day of the intervention was taken as time zero, and the models were forced through this starting point.
One metric that was calculated to compare the efficiency of the phlebotomy for removal of different PFAAs in each family member was termed the phlebotomy efficiency coefficient (EC). This was based on the subtractive difference between HLapp (yrs) in each treated family member and the geometric mean HLin (yrs) of the reference population according to Equation 1 . [drawing 1] (1)

SMILES: O=S(=O)(O)C(F)(F)C(F)(F)C(F)(F)C(F)(F)C(F)(F)C(F)(F)F [PFHxS, Perfluorohexane sulfonate]
- Serum concentration before treatment ([1]; 1st Child): 78.6 ng/mL
- Serum concentration ([1]; 1st Child, sampling date 2009.10.12): 51.9 ng/mL
- Serum concentration ([1]; 1st Child, sampling date 2009.12.24): 40.5 ng/mL
- Serum concentration ([1]; 1st Child, sampling date 2009.6.9): 78.6 ng/mL
- Serum concentration ([1]; 1st Child, sampling date 2009.9.9): 39.0 ng/mL
- Serum concentration ([1]; 1st Child, sampling date 2010.10.14): 51.9 ng/mL
- Serum concentration ([1]; 1st Child, sampling date 2010.1.17): 30.3 ng/mL
- Serum concentration ([1]; 1st Child, sampling date 2010.2.11): 25.3 ng/mL
- Serum concentration ([1]; 1st Child, sampling date 2010.4.14): 29.9 ng/mL
- Serum concentration ([1]; 1st Child, sampling date 2011.12.5): 10.0 ng/mL
- Serum concentration ([1]; 1st Child, sampling date 2011.5.17, LOD=0.5ng/mL): 31.8 ng/mL
- Serum concentration ([1]; 1st Child, sampling date 2011.8.12, LOD=0.5ng/mL): 27.8 ng/mL
- Serum concentration ([1]; 1st Child, sampling date 2012.12.28, LOD=0.5ng/mL): 21.7 ng/mL
- Serum concentration ([1]; 1st Child, sampling date 2012.4.24): 32.7 ng/mL
- Serum concentration ([1]; 1st Child, sampling date 2012.8.21): 25.1 ng/mL
- Serum concentration ([1]; 1st Child, sampling date 2013.3.30): 18.1 ng/mL
- Serum concentration ([1]; 1st Child, sampling date 2013.7.30): 11.9 ng/mL
- Serum concentration before treatment ([1]; 2nd Child): 140 ng/mL
- Serum concentration ([1]; 2nd Child, sampling date 2009.10.24): 97.5 ng/mL
- Serum concentration ([1]; 2nd Child, sampling date 2009.6.6): 140.0 ng/mL
- Serum concentration ([1]; 2nd Child, sampling date 2009.7.2): 124.0 ng/mL
- Serum concentration ([1]; 2nd Child, sampling date 2009.7.30): 132.0 ng/mL
- Serum concentration ([1]; 2nd Child, sampling date 2009.8.24): 162.0 ng/mL
- Serum concentration ([1]; 2nd Child, sampling date 2009.9.27): 67.2 ng/mL
- Serum concentration ([1]; 2nd Child, sampling date 2010.1.3): 57.9 ng/mL
- Serum concentration ([1]; 2nd Child, sampling date 2010.2.15): 44.7 ng/mL
- Serum concentration ([1]; 2nd Child, sampling date 2011.10.2): 47.4 ng/mL
- Serum concentration ([1]; 2nd Child, sampling date 2011.12.24): 43.2 ng/mL
- Serum concentration ([1]; 2nd Child, sampling date 2011.4.27): 72.3 ng/mL
- Serum concentration ([1]; 2nd Child, sampling date 2011.8.14): 63.0 ng/mL
- Serum concentration ([1]; 2nd Child, sampling date 2012.12.24): 78.7 ng/mL
- Serum concentration ([1]; 2nd Child, sampling date 2012.4.6): 48.3 ng/mL
- Serum concentration ([1]; 2nd Child, sampling date 2013.5.11.): 34.8 ng/mL
- Serum concentration ([1]; 2nd Child, sampling date 2013.7.15): 27.1 ng/mL
- Serum concentration before treatment ([1]; 3rd Child): 293 ng/mL
- Serum concentration ([1]; 3rd Child, sampling date 2010.3.12): 168.0 ng/mL
- Serum concentration ([1]; 3rd Child, sampling date 2010.5.23): 85.2 ng/mL
- Serum concentration ([1]; 3rd Child, sampling date 2011.1.6): 98.7 ng/mL
- Serum concentration ([1]; 3rd Child, sampling date 2011.11.26): 31.2 ng/mL
- Serum concentration ([1]; 3rd Child, sampling date 2011.2.24): 114.0 ng/mL
- Serum concentration ([1]; 3rd Child, sampling date 2011.4.30): 82.8 ng/mL
- Serum concentration ([1]; 3rd Child, sampling date 2011.6.13): 92.0 ng/mL
- Serum concentration ([1]; 3rd Child, sampling date 2011.9.27): 108.0 ng/mL
- Serum concentration ([1]; 3rd Child, sampling date 2012.10.16): 63.9 ng/mL
- Serum concentration ([1]; 3rd Child, sampling date 2012.1.8): 51.0 ng/mL
- Serum concentration ([1]; 3rd Child, sampling date 2012.12.9): 95.4 ng/mL
- Serum concentration ([1]; 3rd Child, sampling date 2012.3.4): 61.5 ng/mL
- Serum concentration ([1]; 3rd Child, sampling date 2012.4.28): 110.0 ng/mL
- Serum concentration before treatment ([1]; 4th Child): 167 ng/mL
- starting serum concentration relative to 95th centile among Canadians ([1]; 4th child (4th child)): ~20 fold
- Serum concentration after treatment ([1]; Average of 6 family members, after phlebotomy): 23.3 ng/mL
- Serum concentration before treatment ([1]; Average of 6 family members): 125 ng/mL
- Serum concentration before treatment ([1]; Parent one): 44.1 ng/mL
- Serum concentration ([1]; Parent one, sampling date 2009.10.11): 20.3 ng/mL
- Serum concentration ([1]; Parent one, sampling date 2009.10.12): 25.0 ng/mL
- Serum concentration ([1]; Parent one, sampling date 2009.11.12): 29.5 ng/mL
- Serum concentration ([1]; Parent one, sampling date 2009.12.14): 35.4 ng/mL
- Serum concentration ([1]; Parent one, sampling date 2009.2.2): 44.1 ng/mL
- Serum concentration ([1]; Parent one, sampling date 2009.5.18): 35.0 ng/mL
- Serum concentration ([1]; Parent one, sampling date 2009.6.1): 41.7 ng/mL
- Serum concentration ([1]; Parent one, sampling date 2009.7.4): 26.8 ng/mL
- Serum concentration ([1]; Parent one, sampling date 2009.9.1): 43.5 ng/mL
- Serum concentration ([1]; Parent one, sampling date 2010.10.10): 22.4 ng/mL
- Serum concentration ([1]; Parent one, sampling date 2010.1.17): 34.5 ng/mL
- Serum concentration ([1]; Parent one, sampling date 2010.3.13): 21.2 ng/mL
- Serum concentration ([1]; Parent one, sampling date 2011.1.6): 19.2 ng/mL
- Serum concentration ([1]; Parent one, sampling date 2011.11.26): 8.7 ng/mL
- Serum concentration ([1]; Parent one, sampling date 2011.2.24): 13.1 ng/mL
- Serum concentration ([1]; Parent one, sampling date 2011.4.30): 18.8 ng/mL
- Serum concentration ([1]; Parent one, sampling date 2011.6.22): 16.9 ng/mL
- Serum concentration ([1]; Parent one, sampling date 2011.8.4): 18.0 ng/mL
- Serum concentration ([1]; Parent one, sampling date 2011.9.27): 25.7 ng/mL
- Serum concentration ([1]; Parent one, sampling date 2012..12.28): 17.4 ng/mL
- Serum concentration ([1]; Parent one, sampling date 2012.1.14): 21.5 ng/mL
- Serum concentration ([1]; Parent one, sampling date 2012.11.1): 19.1 ng/mL
- Serum concentration ([1]; Parent one, sampling date 2012.3.4): 19.5 ng/mL
- Serum concentration ([1]; Parent one, sampling date 2012.4.29): 23.1 ng/mL
- Serum concentration ([1]; Parent one, sampling date 2012.7.8): 18.3 ng/mL
- Serum concentration ([1]; Parent one, sampling date 2012.8.21): 21.7 ng/mL
- Serum concentration ([1]; Parent one, sampling date 2013.10.27): 8.8 ng/mL
- Serum concentration ([1]; Parent one, sampling date 2013.2.18): 15.7 ng/mL
- Serum concentration ([1]; Parent one, sampling date 2013.3.30): 16.0 ng/mL
- Serum concentration ([1]; Parent one, sampling date 2013.5.11): 13.1 ng/mL
- Serum concentration ([1]; Parent one, sampling date 2013.7.15): 7.8 ng/mL
- Serum concentration ([1]; Parent one, sampling date 2013.9.8): 18.2 ng/mL
- Serum concentration before treatment ([1]; Parent two): 29.3 ng/mL
- Serum concentration ([1]; Parent two, sampling date 2009.6.1): 29.3 ng/mL
- Serum concentration ([1]; Parent two, sampling date 2009.7.7): 21.3 ng/mL
- Serum concentration ([1]; Parent two, sampling date 2009.8.24): 19.5 ng/mL
- Serum concentration ([1]; Parent two, sampling date 2010.1.3): 16.3 ng/mL
- Serum concentration ([1]; Parent two, sampling date 2010.4.11, LOD=0.5ng/mL): 17.8 ng/mL
- Serum concentration ([1]; Parent two, sampling date 2012.3.13): 16.1 ng/mL
- Serum concentration ([1]; Parent two, sampling date 2013.1.1): 13.2 ng/mL
- Serum concentration ([1]; Parent two, sampling date 2013.10.6): 13.5 ng/mL
- Serum concentration ([1]; Parent two, sampling date 2013.6.22): 9.1 ng/mL
- 95th percentile of serum concentration among Canadians [2]: 8.9 ng/mL
- HLapp ([3]; males and post-menopausal females): 35 years
- HLapp ([3]; reproductive-aged females): 7.7 years
- HLin of fastest eliminator in the reference population ([4]; reference population of occupationally exposed retirees (26 individuals)): 2.2 yrs
- 95% confidence interval of the geometric mean HLin ([4]; reference population of occupationally exposed retirees): 5.8–9.2 yrs
- intrinsic human elimination half-life (HLin) ([4]; serum, highly contaminated retirees >55 yrs, previously occupationally exposed): 8.5 years
- HLin, 95% confidence interval ([4]; serum, retirees >55 yrs, previously occupationally exposed): 6.4–10.6 yrs
- HLapp compared with geometric mean HLin of reference population [5]: significantly shorter
